Assay [1] deals with T1, CRAF (Homo sapiens, UniProt P04049).
T1 construct: gene RAF1; endogenous CRAF immunoprecipitated from NCI-H1666 and NCI-H2405 cells
Briefly: CRAF-IP kinase assay after […] h cell treatment. In kind it is cell-based.

Assay [2] has as its target T2, BRAF (Homo sapiens, UniProt P15056, V600E).
T2 construct: endogenous BRAF immunoprecipitated from HCC364 cells
The experiment in a line: BRAF-IP kinase assay after […] h cell treatment. In kind it is cell-based.

Each structure is given as a SMILES string.

T2 sequence (P15056 2-766 V600E): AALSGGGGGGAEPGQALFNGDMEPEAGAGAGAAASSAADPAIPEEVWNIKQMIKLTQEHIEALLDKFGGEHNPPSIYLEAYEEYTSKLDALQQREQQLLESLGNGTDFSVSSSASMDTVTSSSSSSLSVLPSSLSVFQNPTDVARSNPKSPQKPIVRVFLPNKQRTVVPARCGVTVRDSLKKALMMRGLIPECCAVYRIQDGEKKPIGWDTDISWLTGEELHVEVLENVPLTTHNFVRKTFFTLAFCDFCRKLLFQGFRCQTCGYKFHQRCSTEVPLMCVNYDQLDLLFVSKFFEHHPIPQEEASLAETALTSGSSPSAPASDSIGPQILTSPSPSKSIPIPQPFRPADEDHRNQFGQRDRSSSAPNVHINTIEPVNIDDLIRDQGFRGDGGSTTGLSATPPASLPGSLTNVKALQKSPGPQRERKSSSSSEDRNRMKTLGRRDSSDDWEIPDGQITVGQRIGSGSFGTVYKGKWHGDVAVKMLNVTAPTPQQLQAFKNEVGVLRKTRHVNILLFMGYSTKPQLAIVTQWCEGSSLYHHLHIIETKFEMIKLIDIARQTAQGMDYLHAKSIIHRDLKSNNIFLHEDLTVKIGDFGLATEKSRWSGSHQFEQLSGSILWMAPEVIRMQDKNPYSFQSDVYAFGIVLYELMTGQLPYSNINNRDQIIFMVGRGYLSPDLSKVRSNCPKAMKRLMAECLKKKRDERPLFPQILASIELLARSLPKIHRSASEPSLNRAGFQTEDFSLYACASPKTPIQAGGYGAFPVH
T1 sequence (P04049 whole entry): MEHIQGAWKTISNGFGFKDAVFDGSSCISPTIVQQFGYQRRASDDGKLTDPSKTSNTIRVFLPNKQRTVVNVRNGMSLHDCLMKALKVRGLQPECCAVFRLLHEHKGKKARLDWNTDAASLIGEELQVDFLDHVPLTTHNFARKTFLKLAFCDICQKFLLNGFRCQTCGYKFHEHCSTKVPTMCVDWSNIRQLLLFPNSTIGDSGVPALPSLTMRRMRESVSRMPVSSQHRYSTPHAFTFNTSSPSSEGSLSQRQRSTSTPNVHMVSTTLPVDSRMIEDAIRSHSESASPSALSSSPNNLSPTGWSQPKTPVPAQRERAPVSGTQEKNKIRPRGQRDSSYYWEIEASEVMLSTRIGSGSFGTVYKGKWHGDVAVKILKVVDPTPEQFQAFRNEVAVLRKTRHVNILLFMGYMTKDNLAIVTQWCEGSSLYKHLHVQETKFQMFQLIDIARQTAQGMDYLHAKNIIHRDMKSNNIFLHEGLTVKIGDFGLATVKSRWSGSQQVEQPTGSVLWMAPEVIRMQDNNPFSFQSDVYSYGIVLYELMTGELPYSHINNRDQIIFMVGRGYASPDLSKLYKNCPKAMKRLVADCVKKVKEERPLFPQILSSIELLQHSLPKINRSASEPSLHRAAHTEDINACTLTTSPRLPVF

Regarding `Cc1ccc2c(Nc3cccc(Cl)c3F)nccc2c1NC(=O)c1csc2c(N)ncnc12` [belvarafenib], the “CRAF-IP kinase assay after 4 h cell treatment” value in assay [1] is “baseline CRAF kinase activity was strongly detected in NCI-H1666 cells and was significantly inhibited by exarafenib and belvarafenib”. The “BRAF-IP kinase assay after 4 h cell treatment” value in assay [2] is “Exarafenib and belvarafenib exhibit potent inhibition of BRAF kinase activity in Class I and II BRAF mutations”.

Values taken from paper PMC12992618 (Nature Communications, 2026).
